Results taken from patent publication US10959992B2, “Methods of treatment of asthma and COPD” (Bridge Pharma, Inc., priority 2019, dated 2021).

Key:
[1] = tested on: IL-8; experiment: PHA-induced release of IL-8 from human buffy coats; type: cell-based; details: 10 uM; PHA 5 μg/ml, 16 hours; inhibition
Protocol: (§1) The study was conducted in two phases. The first phase included optimization of the test methodology and included also dose-range finding studies, using buffy coats from 3 human donors, stimulated with phytohemagglutinin (PHA). The concentrations of the test article and the duration of exposure were optimized to obtain acceptable dose-response ratios. Following optimization of the test conditions, a final protocol was issued. In the Main Study, buffy coats from 5 healthy human male donors were stimulated with PHA, 5 μg/ml.
(§2) The inhibitory effects of three concentrations of NK and one concentration of ketotifen were evaluated in the Main Study. The buffy coats were resuspended in assay media and were pre-incubated for 30 min with either vehicle/saline, ketotifen (10 μM) or norketotifen (1.0; 10 or 100 μM). Following these preincubations, the white blood cell suspensions were stimulated for 16 hours with PHA, 5 μg/ml. The cell system supernatants were then harvested and stored frozen.

[2] = tested on: IL-6; experiment: PHA-induced release of IL-6 from human buffy coats; type: cell-based; details: 10 uM; PHA 5 μg/ml, 16 hours; inhibition
Protocol: as §1, §2

[3] = tested on: IL-10; experiment: PHA-induced release of IL-10 from human buffy coats; type: cell-based; details: 10 uM; PHA 5 μg/ml, 16 hours; inhibition
Protocol: as §1, §2

[4] = tested on: IL-4; experiment: PHA-induced release of IL-4 from human buffy coats; type: cell-based; details: 10 uM; PHA 5 μg/ml, 16 hours; inhibition
Protocol: as §1, §2

[5] = tested on: IL-2; experiment: PHA-induced release of IL-2 from human buffy coats; type: cell-based; details: 10 uM; PHA 5 μg/ml, 16 hours; inhibition
Protocol: as §1, §2

[6] = tested on: TNF-α; experiment: PHA-induced release of TNF-α from human buffy coats; type: cell-based; details: 10 uM; PHA 5 μg/ml, 16 hours; inhibition
Protocol: as §1, §2

[7] = tested on: IL-13; experiment: PHA-induced release of IL-13 from human buffy coats; type: cell-based; details: 10 uM; PHA 5 μg/ml, 16 hours; inhibition
Protocol: as §1, §2

[8] = tested on: IL-1β; experiment: PHA-induced release of IL-1β from human buffy coats; type: cell-based; details: 10 uM; PHA 5 μg/ml, 16 hours; inhibition
Protocol: as §1, §2

[9] = tested on: IFN-γ; experiment: PHA-induced release of IFN-γ from human buffy coats; type: cell-based; details: 10 uM; PHA 5 μg/ml, 16 hours; inhibition
Protocol: as §1, §2

[10] = tested on: PAF-induced eosinophilia; experiment: PAF-induced pulmonary eosinophil accumulation after continuous subcutaneous dosing; type: in vivo, Sprague-Dawley rats; details: 1 mg/kg/day sc for 6 days, rats; BSA + saline control 100, PAF control 250
Protocol: Male Sprague-Dawley rats, 400-600 g, were used in these studies.
The study described here used subcutaneous administration of norketotifen and ketotifen by Alzet® osmotic pumps. The rats were administered either RS-norketotifen hydrogen fumarate (1.0 mg/kg/day) or RS-ketotifen hydrogen fumarate (1.0 mg/kg/day) or saline. After five days of sc infusions of test articles and the vehicle, the animals were injected, i.p. with 10 μg PAF (platelet aggregating factor) in 0.25% bovine serum albumin (BSA) in saline. The subcutaneous infusions of test articles or vehicle were continued for another twenty-four hours and the animals were then sacrificed by intraperitoneal injections of a barbiturate. The tracheae of the euthanized animals were exposed and cannulated and aliquots (6×10 ml) of a Tyrode solution were successively introduced into the lungs and aspirated by gentle compression of the thorax. The total recovery of lung fluid was usually above 80%. The cell suspensions were concentrated by low speed centrifugation (200 g for 10 min) and the resulting cell pellet was resuspended in 1 ml of a Tyrode solution. Total cell counts were performed after dilution in Turks fluid, fixation in methanol and Leishman staining.
The study shown here used norketotifen, ketotifen, and saline (control) after continuous dosing with Alzet® Osmotic pumps.

[11] = tested on: croton oil-induced ear swelling; experiment: Croton oil-induced ear swelling; type: in vivo, CD-1 female mice; parameters: Average ear thickness: unit not given beside the values; details: for Average ear thickness: single oral dose 10 mg/kg 60 min before
Protocol: The effects of NK, PRED and the vehicle (5% PEG in water) were tested orally in CD-1 female mice. Under the test protocol, 20 μl of 1.0% croton oil in acetone was applied topically to both ears of three groups of mice, each group consisting of 6 mice. No attempt was made to remove the croton oil solution since the solvent evaporated within 30 seconds. The oral doses of NK and PRED were 10 mg/kg (10 ml/kg) bodyweight for both compounds and were administered 60 min before the croton oil applications. Vehicle-treated mice were dosed 10 ml/kg of water, containing 5% polyethylene glycol (PEG), which was also the solvent for the test articles. Ear thickness was measured with an electronic caliper and mean ear thickness (N=12; right+left ears) were calculated and compared with the thickness of ears from vehicle-treated mice (Student's t-test).

[12] = tested on: oxazolone-induced increase in ear thickness; experiment: Oxazolone test of immunosuppression (ear thickness); type: in vivo, BALB/c mice; details: for Increase in ear thickness (mm): control 0.153; for Increase in ear thickness (%): control 100.0
Protocol: Male BALB/c mice, 20-24 grams, 7-12 weeks, were used. The sensitization dosing (Day 1) consisted of painting the ventral portion of the pre-shaved abdominal skin with 0.1 ml of 3.0% oxazolone in 70% ethanol. Test articles were administered orally in 1.0% methyl-cellulose, starting on Day 1 and continuing for 10 consecutive days. The challenge dosing consisted of the application of 0.05 ml of 3.0% oxazolone in 70% ethanol on both sides of the outer pinna of the right ear. The thickness of both ears of all animals was measured with a calliper before the challenge dose and 24 hours after the administration of the challenge dose (Day 10). The ear thickness of untreated mice was 0.19 to 0.20 mm.
Justification of the model: The classic oxazolone test method was used with minor modifications. This method has been used for over 40 years in numerous drug development projects.

[13] = tested on: sedation; details: art-accepted mouse model of sedation; U.S. Pat. Nos. 7,226,934 and 7,557,128; cited from earlier work

CN1CCC(=C2c3ccccc3CC(=O)c3sccc32)CC1 [Ketotifen, ketotifen, reference compound]
Effect on PHA-induced release of IL-8 (%) [1]: 30.73%
Effect on PHA-induced release of IL-6 (%) [2]: 0.00%
Effect on PHA-induced release of IL-10 (%) [3]: 0.00%
Effect on PHA-induced release of IL-4 (%) [4]: 0.00%
Effect on PHA-induced release of IL-2 (%) [5]: 0.00%
Effect on PHA-induced release of TNF-α (%) [6]: 39.98%
Effect on PHA-induced release of IL-13 (%) [7]: 0.00%
Effect on PHA-induced release of IL-1β (%) [8]: 0.00%
Effect on PHA-induced release of IFN-γ (%) [9]: 0.00%

CN1CCC(=C2c3ccccc3CC(=O)c3sccc32)CC1.O=C(O)/C=C/C(=O)O [Ketotifen HF, RS-ketotifen hydrogen fumarate, reference compound]
PAF-induced esosinophilia (% ± SEM) [10]: 110 ± 3%

O=C(O)C=CC(=O)O.O=C1Cc2ccccc2C(=C2CCNCC2)c2ccsc21 [Norketotifen HF, RS-norketotifen hydrogen fumarate]
PAF-induced esosinophilia (% ± SEM) [10]: 74 ± 4%

C[C@]12C=CC(=O)C=C1CC[C@@H]1[C@@H]2[C@@H](O)C[C@@]2(C)[C@H]1CC[C@]2(O)C(=O)CO [PRED, prednisolone]
Average ear thickness ([11]; 0 (predose) min after croton oil, vehicle 0.21 ± 0.02): 0.22 ± 0.01
Average ear thickness ([11]; 90 min after croton oil, vehicle 0.29 ± 0.04): 0.28 ± 0.01
Average ear thickness ([11]; 120 min after croton oil, vehicle 0.28 ± 0.02): 0.27 ± 0.01
Anti-inflammatory effect compared with vehicle control group (conclusion in words) ([11]; single oral dose 10 mg/kg, croton oil ear swelling in mice): did not express statistically significant anti-inflammatory effect
Immunosuppression (%) ([12]; 0.3 mg/kg/day oral for 10 days): 29.4%
Increase in ear thickness (mm) ([12]; 0.3 mg/kg/day oral for 10 days): 0.108 mm
Increase in ear thickness (%) ([12]; 0.3 mg/kg/day oral for 10 days): 70.6%
Immunosuppression (%) ([12]; 1.0 mg/kg/day oral for 10 days): 45.0%
Increase in ear thickness (mm) ([12]; 1.0 mg/kg/day oral for 10 days): 0.084 mm
Increase in ear thickness (%) ([12]; 1.0 mg/kg/day oral for 10 days): 55.0%
Immunosuppression (%) ([12]; 3.0 mg/kg/day oral for 10 days): 50.3%
Increase in ear thickness (mm) ([12]; 3.0 mg/kg/day oral for 10 days): 0.076 mm
Increase in ear thickness (%) ([12]; 3.0 mg/kg/day oral for 10 days): 49.7%
Immuno-suppressant activity (conclusion in words) ([12]; daily oral dosing for 10 days to mice, RS-norketotifen 10 or 30 mg/kg, prednisolone at 10 times lower doses): potent and dose-dependent immune suppression

O=C(O)/C=C/C(=O)O.O=C1Cc2ccccc2C(=C2CCNCC2)c2ccsc21 [R-isomer, R-norketotifen]
Sedative effects [13]: sedative effects were attributed to the R-isomer
